Assay results: publication PMC5190008, “BO-1055, a novel DNA cross-linking agent with remarkable low myelotoxicity shows potent activity in sarcoma models” (Oncotarget, 2016)

What was measured:
[1] = system: A673 spheroids; assay: Spheroid assay in 3D culture (methylcellulose); assay type: cell-based, human
Method: A673 cells were seeded on flat bottom non attachment 24 well plates (1000 cells/well) in triplicate using 1.2 % methylcellulose (Dow Chemical, Waterloo, NY) mixed with 20% FCS and specified concentrations of BO-1055 or 4HC as shown in Figure 1D. Samples were incubated at 37°C / 5 % CO2 and colonies were scored 14 days after plating.

[2] = system: A673 cells; assay: Annexin V-APC/7-AAD apoptosis flow cytometry; assay type: cell-based, human; conditions: A673, 48 h, 1μM
Description: In order to quantify the apoptosis ratio in A673 cells treated with BO-1055 we performed Annexin V-APC/7-AAD staining assays. Early apoptosis was defined as the presence of Annexin V-positive and 7-AAD-negative cells. Late apoptosis was defined as Annexin V-positive and 7-AAD-positive cells. Total percent apoptosis was defined as the sum of early and late apoptotic cells as a percentage of the total cell number. BO-1055 induces apoptosis in the A673 cell line in a time-concentration dependent manner (Figure 3B). Around 50 % of treated cells entered apoptosis after 48 h at concentrations of 1μM.
Cell viability and apoptosis were determined using 7-AAD (BD Pharmingen, San Diego, CA) and Annexin V-APC (BD Pharmingen, San Diego, CA) staining according to the instructions provided by the manufacturer and as previously published. Cell cycle fractions were determined by propidium iodide nuclear staining. Briefly, cells were harvested, washed in PBS, fixed with 70% ethanol, and incubated with propidium iodide/RNase buffer (BD Biosciences, San Diego, CA) for 15 minutes at room temperature. Data was collected on BD LSR Fortessa fluorescence-activated cell analyzer using BD FACS Diva software and analyzed using FlowJo version 9.6 software (Tree Star, Inc. Ashland, OR). Cell cycle analysis was done by applying the Dean/Jett/Fox cell cycle model using FlowJo software.

[3] = system: A204 xenografts; assay: A204 xenografts in nude mice; assay type: in vivo
Method: All mouse experiments were performed at the animal core facility at MSKCC under an approved protocol following the IACUC guidelines. Five to seven-week-old NOD/SCID IL2R gamma null (NSG) mice (bred at the Mouse Genetics Core Facility, MSKCC) were used for in vivo experiments. All mouse experiments were done following the IACUC guidelines at the animal facility at MSKCC. Tumors were induced using 10^6 A673 cells or A204 cells in 0.2ml 1:1 cellular medium, Matrigel matrix (BD Bioscience, Bedford, MA) and injected subcutaneously (s.q) into the right flank. The tumors were measured every 3 d with a caliper, and the diameters were recorded. Tumor volume was calculated by the formula a^2 b/2 where ‘a’ is the smallest and ‘b’ is the largest diameter. When the tumors reached 100mm^3, we randomized mice into control and drug treatment groups. Treatment groups received BO-1055 by tail vein injection at 10mg/kg, 20mg/kg and 30mg/kg q2d x 5 doses for mice bearing A673 xenografts. BO-1055 was given at 30mg/kg q2d x 5 doses for mice bearing A204 xenografts. De-identified patient tumor tissues were obtained in accordance with and approval from the MSKCC Institutional Review Board (IRB). Appropriate written consent and assent were obtained from the patients prior to sample collection. […]

[4] = system: caspase 3/7 in A673 cells; assay: Caspase 3/7 activity (ApoTox-Glo Triplex Assay); assay type: cell-based, human; conditions: A673, 48h and 72h, concentration dependent
Method: A673 cells were plated at a density of 5 × 10^3 cells/well in 96 well plates. At 48h and 72h post drug exposure, 100μl of Caspase-Glo 3/7 reagent provided in the ApoTox -Glo Triplex Assay (Promega, USA) was added as per the protocol and the luminescence, which indicates caspase activation, was measured using the Synergy H1 hybrid microplate reader.

[5] = system: A673 cells; assay: Drug combination study (Alamar Blue, Chou-Talalay combination index); assay type: cell-based, human
Method: The AlamarBlue® cell proliferation assay was used to test the effect of a single drug and a combination of drugs. A673 cells (5 × 10^3 cells/well) were added to 96 well plates in triplicate. After 12h incubation, BO-1055 and a second drug (Topotecan, SN38, Doxorubicin or PU-H71) were added simultaneously in a lattice format in varying concentrations. Plates were read after 72h drug exposure. Combination indices were derived as described below to identify the interaction in two-drug combinations.
Data are presented as mean±S.E.M. of at least three independent experiments done in triplicate. The comparison of means between treated and control mice was performed using two-tailed T-test or ANOVA (for more than two groups) as implemented in GraphPad Prism (version 4; GraphPad Software). Graphpad Prism software was used to plot concentration-effect curves and determine the drug concentration that inhibited the growth of cell lines by 50% compared to the control (IC50). A p-value of 0.05 or less was considered significant. Combination index (CI) values, as calculated by CompuSyn software (Chou and Martin, 2007), were used to evaluate the interaction between BO-1055 and a second drug (Topotecan, SN38, Doxorubicin or PU-H71). The Chou-Talalay method was used to quantify the synergism (CI < 1), additive effect (CI = 1) and antagonism (CI > 1) of various drug combinations.

Structure (SMILES): CN(C)CCNC(=O)c1cccc(NC(=O)Nc2ccc(N(CCCl)CCCl)cc2)c1 [BO-1055]
- concentration giving complete inhibition of spheroids ([1]; A673 spheroids in methylcellulose, scored 14 days after plating): 0.5 µM
- fold lower concentration inhibiting A673 spheroids compared to 4-HC ([1]; BO-1055 vs 4-HC): 10 fold
- treated cells entering apoptosis [2]: Around 50%
- body weight ([3]; 30mg/kg q2d x 5): no significant decrease in body weight
- tumor response ([3]; 30mg/kg q2d x 5, tail vein): Complete regression of tumors
- caspase 3/7 activity [4]: Activation
- drug interaction (combination index) ([5]; BO-1055 combined with PU-H71, A673, 72h): synergistic
- drug interaction (combination index) ([5]; BO-1055 combined with SN-38, A673, 72h): highly synergistic
- drug interaction (combination index) ([5]; BO-1055 combined with doxorubicin, A673, 72h): synergistic
- drug interaction (combination index) ([5]; BO-1055 combined with topotecan, A673, 72h): synergistic
